The target of one data set is CDK2/cyclin E (Homo sapiens, UniProt P24941). As to the kind of experiment: KinaseProfile radiometric protein kinase assay, CDK2/cyclin E. The format is biochemical. The protocol:
(§1) The KinaseProfile radiometric protein kinase assay was used to evaluate the inhibitory activity of the compounds against CDK2/cyclin E, CDK4/cyclin D, CDK6/cyclin D, CDK7/cyclin H and CDK9/cyclin T.
(§2) The compounds were prepared in 100% DMSO at a final 50× stock concentration. The working stock solution was added as the first component to the assay wells. CDK2/cyclin E, CDK4/cyclin D, CDK6/cyclin D, CDK7/cyclin H, and CDK9/cyclin T were added in their respective kinase buffers: (CDK4: 8 mM MOPS pH 7.0, 0.2 mM EDTA, 0.03% BSA, 0.03% Tween 20, 20 mM DTT, and 0.2 mg/ml Rb fragment, 10 mM Magnesium acetate; CDK2, CDK6: 8 mM MOPS pH 7.0, 0.2 mM EDTA, 0.1 mg/mL histone H1, 10 mM Magnesium acetate; CDK7: 8 mM MOPS pH 7.0, 0.2 mM EDTA, 500 μM peptide, 10 mM Magnesium acetate; CDK9: 8 mM MOPS pH 7.0, 0.2 mM EDTA, 100 μM […], 10 mM Magnesium acetate) and [γ-^33 P-ATP] was included in the reaction mixture. The reaction was initiated by the addition of the Mg/ATP mixture and incubated at room temperature for 40 minutes. The reaction was terminated by the addition of 0.5% phosphoric acid. Then, 10 μL of the reaction mixture was spotted onto P30 filter pads, washed four times (1 minute each) with 0.425% phosphoric acid, followed by a single wash with methanol. The pads were then dried and counted. The data were recorded, inhibition rates were calculated, and IC50 values were determined accordingly. Table 2 summarizes the in vitro enzymatic inhibitory activity of the compounds of the present application.

The target in the next data set is CDK4/cyclin D (Homo sapiens, UniProt P11802). As to the kind of experiment: KinaseProfile radiometric protein kinase assay, CDK4/cyclin D. The format is biochemical. The protocol:
as §1, §2

For data set [1], the system named is MCF-7 human breast cancer cells. Description: Cell viability assay (CELLTITER-GLO). It counts as cell-based. The note with it: MCF7, 168 h, MCF-7 cells, 7 days. As to the method: The cell viability of MCF-7 human breast cancer cells under standard culture conditions was assessed using the CELLTITER-GLO assay. MCF-7 cells were seeded at 3,000 cells per well in 96-well plates and incubated overnight in a CO2 incubator. The next day, serial dilutions of Compound 1 at various concentrations were added to the wells. The plates were returned to the incubator and cultured for 7 days. After 7 days, the plates were equilibrated at room temperature for 30 minutes. Subsequently, 100 μL of CELLTITER-GLO detection solution was added. The cells were mixed on an orbital shaker for 5 min and then incubated for additional 10 min. The plate was read with an ENVISION reader. Data were processed and analyzed to determine the IC50 values.
(In general: ATP-based viability assays read luminescence as a measure of living cells.)

The subject of data set [2] is 5-FU-induced diarrhea model. As to the kind of experiment: 5-FU-induced diarrhea model, 5-FU 3-day model. It counts as in vivo, Balb/c mice. The note with it: 5-FU 60 mg/kg once a day for 3 days, mice. As to the method: The 5-FU-induced diarrhea model was used as an experimental model of the present invention to evaluate the in vivo activity of the compounds.
Balb/c mice (20-25 g, 7-8 weeks old, Jihui) were acclimated for one week and then randomly assigned to 3 groups (n=10 per group): control group, 5-FU group, and CDK inhibitor group. […] […] […] From Day 1 to Day 7, diarrhea severity was assessed daily for each mouse according to the diarrhea scoring system.
The diarrhea scoring system was based on the method by Akinobu Kurita (Cancer Chemother Pharmacol 2000; 46:211-20), Grade 0: normal stool; Grade 1: mild diarrhea, slightly soft stool and wet stool; Grade 2: moderate diarrhea, loose stool with slight perianal staining; Grade 3: severe diarrhea, loose watery stool with severe perianal staining.
The diarrhea relief rate (%) was calculated as follows: […]

For data set [3], the system named is Irinotecan-induced constipation model. Description: Irinotecan-induced constipation model. The conditions noted are these: irinotecan 260 mg/kg once a day, 1 day, rats. The format is in vivo, Sprague-Dawley rats. The text has this: Sprague-Dawley rats (180-200 g, 7-8 weeks old, Jihui) were acclimated for 7 days and randomly divided into three groups: control group, irinotecan group, and CDK inhibitor group, with 10 rats per group. The control group received the same vehicle orally as the CDK inhibitor group, followed by an injection of the same vehicle as the irinotecan group; the irinotecan group received the same oral vehicle as the CDK inhibitor group, followed by an injection of irinotecan; the CDK inhibitor group received the CDK inhibitor orally, followed by an injection of irinotecan.
From Day 2 to Day 7, the degree of constipation was assessed for each rat based on the following score:
Constipation assessment: Feces excreted within a 3-hour period were collected and evaluated for morphology and weight using an electronic balance. Stool reduction rate was calculated according to the method of Ji Eun Kim (Lab Anim Res. 2016 December; 32(4): 231-240). Stool reduction rate (%)=(Control group−Irinotecan or CDK inhibitor group)/Control group×100%.
The constipation relief rate of the CDK inhibitor was calculated as follows: Relief rate (%)=([…])/Irinotecan group stool reduction rate×100%.

Data set [4] in a line: Single-dose intravenous and oral pharmacokinetic study in rats. The conditions noted are these: male SD rats. It counts as in vivo, Sprague-Dawley (SD) rats. The protocol:
Six male Sprague-Dawley (SD) rats were randomly divided into two groups, with three rats in each group. Compound 1 was administered either by intravenous injection at a dose of 2 mg/kg or by oral gavage at a dose of 10 mg/kg. The dosing volumes were 5 mL/kg for intravenous administration and 10 mL/kg for oral administration, with purified water used as the solvent. For the intravenous group, blood samples were collected at 0.083, 0.25, 0.5, 1, 2, 4, 6, 8, and 24 hours post-dose. For the oral group, blood samples were collected at 0.25, 0.5, 1, 2, 4, 6, 8, and 24 hours post-dose. Plasma samples were prepared by centrifugation and stored at −70° C. The plasma concentration of Compound 1 was determined using LC-MS/MS.

Where [5] appears, read: Sprague-Dawley, rat, IV 2 mg/kg, plasma.

Like-named read-outs stand apart in the source and are kept apart here.

Chain of CDK4/cyclin D (P11802 whole entry): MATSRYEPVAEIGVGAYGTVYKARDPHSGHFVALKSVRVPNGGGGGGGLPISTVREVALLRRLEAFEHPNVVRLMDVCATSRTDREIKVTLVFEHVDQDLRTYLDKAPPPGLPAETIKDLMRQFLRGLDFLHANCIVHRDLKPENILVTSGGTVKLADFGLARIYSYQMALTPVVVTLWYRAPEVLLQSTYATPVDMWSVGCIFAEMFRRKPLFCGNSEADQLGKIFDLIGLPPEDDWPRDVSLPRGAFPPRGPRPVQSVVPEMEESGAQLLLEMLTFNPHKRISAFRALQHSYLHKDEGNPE
Chain of CDK4/cyclin D (P30281 whole entry partner): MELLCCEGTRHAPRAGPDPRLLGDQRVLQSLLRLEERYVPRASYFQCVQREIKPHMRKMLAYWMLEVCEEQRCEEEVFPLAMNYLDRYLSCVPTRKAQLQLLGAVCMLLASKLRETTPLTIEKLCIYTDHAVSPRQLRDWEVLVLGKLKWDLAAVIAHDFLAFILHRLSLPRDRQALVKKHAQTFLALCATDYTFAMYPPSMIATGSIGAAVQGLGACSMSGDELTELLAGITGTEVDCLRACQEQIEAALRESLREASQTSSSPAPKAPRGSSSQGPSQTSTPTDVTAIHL

As to `CC(=O)c1c(C)c2c(n(C3CCCC3)c1=O)=NC(Nc1ccc(N3CCN(S(=O)(=O)NCCN)CC3)cn1)NC=2` (stereo not drawn) [Compound 1], the IC50 on CDK2/cyclin E is greater than 10000 nM; against CDK4/cyclin D it was less than 50 nM; in data set [1] (read-out: Absolute IC 50), less than 1000 nM; in data set [1] (read-out: Relative IC 50), less than 1000 nM. Further, the diarrhea relief rate came to 40% in data set [2] (10 mg/kg oral twice a day for 3.5 days); 60% in data set [2] (25 mg/kg oral twice a day for 3 days); 40% in data set [2] (50 mg/kg oral twice a day for 3 days); 55% in data set [2] (75 mg/kg oral twice a day for 4 days); 50% in data set [2] (100 mg/kg oral twice a day for 3 days); 40% in data set [2] (100 mg/kg oral twice a day for 3.5 days). Besides, the constipation relief rate is 20% in data set [3] (2.5 mg/kg oral, 4 hours before irinotecan and 8 hours after irinotecan); 30% in data set [3] (5 mg/kg oral, 6 hours before irinotecan and 6 hours after irinotecan); 75% in data set [3] (25 mg/kg oral, 4 hours before irinotecan and 8 hours after irinotecan); 50% in data set [3] (50 mg/kg oral, 6 hours before irinotecan and 6 hours after irinotecan); 40% in data set [3] (100 mg/kg oral, 4 hours before irinotecan and 8 hours after irinotecan); 40% in data set [3] (100 mg/kg oral, 6 hours before irinotecan and 6 hours after irinotecan). The AUC(0-t) – broadly, exposure summed from dosing to a finite time, without extrapolation to infinity – in data set [4] (setting [5]) came out at 602 ± 161 ng·h/mL. For the same compound, in data set [4] (setting [5]), the clearance stood at 56.7 ± 17.3 mL/min/kg. The half-life – broadly, the time needed for the level to fall by half in the phase considered – in data set [4] (setting [5]) is 5.55 ± 0.503 h. For the same compound, in data set [4] (Sprague-Dawley, rat, IV 2 mg/kg, plasma, read-out: Vdss), the Vd amounted to 9.61 ± 5.43 L/kg. For the same compound, in data set [4] (PO 10 mg/kg, all samples 0.25-24 h, below the lower limit of quantification), the “plasma concentrations following oral administration” value is less than 1 ng/mL.

The record behind these values is patent publication US20260207604A1, “COMPOUND AND USE THEREOF” (ONQUALITY PHARMACEUTICALS CHINA LTD., priority 2022, published 2026).
